From the NIST ThermoML archive (doi:10.1016/j.jct.2016.03.026)
“And” between values parts separate entries of the source, which are not always exact repeats. Identical values can stand only once.

Test: xn = mol fraction of the nth substance listed
Details: Fluid (supercritical or subcritical phases), Frequency=5 MHz, Pulse-echo method

O=C=O [carbon dioxide] + CO
Details | speed of sound
313.15 K, 90000 kPa, x1 = 0.97 | 980.1 m/s
313.15 K, 100110 kPa, x1 = 0.97 | 1019.5 m/s
313.15 K, 109900 kPa, x1 = 0.97 | 1055.1 m/s
313.15 K, 120040 kPa, x1 = 0.97 | 1089.6 m/s
313.15 K, 140110 kPa, x1 = 0.97 | 1152.5 m/s
313.15 K, 159960 kPa, x1 = 0.97 | 1208.8 m/s
313.15 K, 179840 kPa, x1 = 0.97 | 1260.7 m/s
323.14 K, 24960 kPa, x1 = 0.925 | 536.3 m/s and 537.4 m/s
323.14 K, 24980 kPa, x1 = 0.925 | 537.5 m/s
323.14 K, 25000 kPa, x1 = 0.925 | 537.5 m/s
323.14 K, 29980 kPa, x1 = 0.925 | 591.2 m/s
323.14 K, 29990 kPa, x1 = 0.925 | 591.2 m/s and 590.7 m/s and 591.5 m/s
323.14 K, 34960 kPa, x1 = 0.925 | 636.5 m/s and 637.2 m/s
323.14 K, 34980 kPa, x1 = 0.925 | 637.4 m/s
323.14 K, 34990 kPa, x1 = 0.925 | 637.5 m/s
323.14 K, 39980 kPa, x1 = 0.925 | 678 m/s and 677.9 m/s
323.14 K, 39990 kPa, x1 = 0.925 | 678.6 m/s
323.14 K, 40000 kPa, x1 = 0.925 | 678.2 m/s
323.14 K, 44980 kPa, x1 = 0.925 | 714.6 m/s and 714.8 m/s
323.14 K, 45000 kPa, x1 = 0.925 | 714.7 m/s
323.14 K, 49960 kPa, x1 = 0.925 | 748 m/s
323.14 K, 49980 kPa, x1 = 0.925 | 748.4 m/s and 748.2 m/s
323.14 K, 50000 kPa, x1 = 0.925 | 748.4 m/s
323.14 K, 54960 kPa, x1 = 0.925 | 779.2 m/s
323.14 K, 54980 kPa, x1 = 0.925 | 779.1 m/s
323.14 K, 55000 kPa, x1 = 0.925 | 779.3 m/s
323.14 K, 55010 kPa, x1 = 0.925 | 779.4 m/s
323.14 K, 59980 kPa, x1 = 0.925 | 807.9 m/s and 808.1 m/s
323.14 K, 59990 kPa, x1 = 0.925 | 808.2 m/s
323.14 K, 60030 kPa, x1 = 0.925 | 808.2 m/s
323.14 K, 64970 kPa, x1 = 0.925 | 835.2 m/s and 835.3 m/s and 835.1 m/s
323.14 K, 64990 kPa, x1 = 0.925 | 835.4 m/s
323.14 K, 69970 kPa, x1 = 0.925 | 860.9 m/s and 860.8 m/s
323.14 K, 69980 kPa, x1 = 0.925 | 861 m/s
323.14 K, 69990 kPa, x1 = 0.925 | 860.9 m/s
323.14 K, 74950 kPa, x1 = 0.925 | 885 m/s
323.14 K, 74990 kPa, x1 = 0.925 | 885.2 m/s
323.14 K, 75000 kPa, x1 = 0.925 | 885.4 m/s
323.14 K, 75060 kPa, x1 = 0.925 | 885.5 m/s
323.14 K, 79970 kPa, x1 = 0.925 | 908.3 m/s
323.14 K, 79990 kPa, x1 = 0.925 | 908.5 m/s and 908.4 m/s
323.14 K, 80000 kPa, x1 = 0.925 | 908.4 m/s
323.14 K, 89990 kPa, x1 = 0.925 | 951.7 m/s
323.14 K, 90000 kPa, x1 = 0.925 | 951.8 m/s and 952 m/s
323.14 K, 99950 kPa, x1 = 0.925 | 991.5 m/s
323.14 K, 100000 kPa, x1 = 0.925 | 992.1 m/s
323.14 K, 100010 kPa, x1 = 0.925 | 991.8 m/s and 991.7 m/s
323.14 K, 109960 kPa, x1 = 0.925 | 1028.8 m/s
323.14 K, 109980 kPa, x1 = 0.925 | 1029.1 m/s and 1028.9 m/s
323.14 K, 109990 kPa, x1 = 0.925 | 1029 m/s
323.14 K, 119970 kPa, x1 = 0.925 | 1063.9 m/s and 1063.8 m/s
323.14 K, 119990 kPa, x1 = 0.925 | 1063.9 m/s
323.14 K, 129960 kPa, x1 = 0.925 | 1096.8 m/s
323.14 K, 129980 kPa, x1 = 0.925 | 1096.8 m/s
323.14 K, 129990 kPa, x1 = 0.925 | 1096.8 m/s
323.14 K, 130020 kPa, x1 = 0.925 | 1096.9 m/s
323.14 K, 139960 kPa, x1 = 0.925 | 1128 m/s
323.14 K, 139990 kPa, x1 = 0.925 | 1128 m/s and 1128.1 m/s
323.14 K, 140000 kPa, x1 = 0.925 | 1128.1 m/s
323.14 K, 149960 kPa, x1 = 0.925 | 1157.6 m/s
323.14 K, 149980 kPa, x1 = 0.925 | 1157.7 m/s
323.14 K, 149990 kPa, x1 = 0.925 | 1157.7 m/s
323.14 K, 150010 kPa, x1 = 0.925 | 1157.8 m/s
323.14 K, 159990 kPa, x1 = 0.925 | 1186.2 m/s
323.14 K, 160000 kPa, x1 = 0.925 | 1187 m/s
323.14 K, 160010 kPa, x1 = 0.925 | 1186 m/s
323.14 K, 160050 kPa, x1 = 0.925 | 1186.2 m/s
323.14 K, 169940 kPa, x1 = 0.925 | 1213.1 m/s
323.14 K, 169980 kPa, x1 = 0.925 | 1213.1 m/s and 1213.3 m/s
323.14 K, 170010 kPa, x1 = 0.925 | 1213.2 m/s
323.14 K, 179960 kPa, x1 = 0.925 | 1239.4 m/s
323.14 K, 180000 kPa, x1 = 0.925 | 1239.1 m/s and 1239.5 m/s
323.14 K, 180100 kPa, x1 = 0.925 | 1239.2 m/s
323.14 K, 189980 kPa, x1 = 0.925 | 1263.9 m/s
323.14 K, 190000 kPa, x1 = 0.925 | 1264.3 m/s
323.14 K, 190010 kPa, x1 = 0.925 | 1264.5 m/s
323.14 K, 190050 kPa, x1 = 0.925 | 1264.6 m/s
323.15 K, 24960 kPa, x1 = 0.8502 | 549.5 m/s
323.15 K, 25000 kPa, x1 = 0.7534 | 585.5 m/s
323.15 K, 29950 kPa, x1 = 0.7534 | 635.7 m/s
323.15 K, 30020 kPa, x1 = 0.8502 | 602.8 m/s
323.15 K, 35040 kPa, x1 = 0.7534 | 680.4 m/s
323.15 K, 35100 kPa, x1 = 0.8502 | 648.9 m/s
323.15 K, 40000 kPa, x1 = 0.7534 | 719.1 m/s
323.15 K, 40050 kPa, x1 = 0.8502 | 688.4 m/s
323.15 K, 45010 kPa, x1 = 0.8502 | 724.5 m/s
323.15 K, 45070 kPa, x1 = 0.7534 | 755 m/s
323.15 K, 49920 kPa, x1 = 0.8502 | 757.3 m/s
323.15 K, 50420 kPa, x1 = 0.7534 | 789.8 m/s
323.15 K, 55040 kPa, x1 = 0.8502 | 788.7 m/s
323.15 K, 55120 kPa, x1 = 0.7534 | 818.2 m/s
323.15 K, 59980 kPa, x1 = 0.8502 | 817.2 m/s
323.15 K, 60110 kPa, x1 = 0.7534 | 846.6 m/s
323.15 K, 64840 kPa, x1 = 0.8502 | 843.5 m/s
323.15 K, 65810 kPa, x1 = 0.7534 | 876.8 m/s
323.15 K, 69880 kPa, x1 = 0.8502 | 869.3 m/s
323.15 K, 70220 kPa, x1 = 0.7534 | 899.1 m/s
323.15 K, 75110 kPa, x1 = 0.8502 | 894.6 m/s
323.15 K, 75220 kPa, x1 = 0.7534 | 923.1 m/s
323.15 K, 80180 kPa, x1 = 0.8502 | 918 m/s
323.15 K, 89680 kPa, x1 = 0.8502 | 959.3 m/s
323.15 K, 90000 kPa, x1 = 0.7534 | 988.1 m/s
323.15 K, 99900 kPa, x1 = 0.8502 | 1000.3 m/s
323.15 K, 100230 kPa, x1 = 0.7534 | 1029 m/s
323.15 K, 109760 kPa, x1 = 0.8502 | 1037.3 m/s
323.15 K, 109960 kPa, x1 = 0.7534 | 1065.3 m/s
323.15 K, 119510 kPa, x1 = 0.8502 | 1071.6 m/s
323.15 K, 120580 kPa, x1 = 0.7534 | 1102.5 m/s
323.15 K, 139890 kPa, x1 = 0.8502 | 1137.2 m/s
323.15 K, 140520 kPa, x1 = 0.7534 | 1166.6 m/s
323.15 K, 160410 kPa, x1 = 0.7534 | 1224.7 m/s
323.15 K, 180460 kPa, x1 = 0.7534 | 1278.6 m/s
323.16 K, 69980 kPa, x1 = 0.9803 | 855.3 m/s
323.16 K, 74960 kPa, x1 = 0.9803 | 879.8 m/s
323.16 K, 79950 kPa, x1 = 0.9803 | 903.2 m/s
323.16 K, 89640 kPa, x1 = 0.9803 | 945.6 m/s
323.16 K, 99690 kPa, x1 = 0.9803 | 986.1 m/s
323.16 K, 110360 kPa, x1 = 0.9803 | 1025.6 m/s
323.16 K, 120030 kPa, x1 = 0.9803 | 1059.8 m/s
323.16 K, 129970 kPa, x1 = 0.9803 | 1092.5 m/s
323.16 K, 140230 kPa, x1 = 0.9803 | 1124.5 m/s
323.16 K, 150140 kPa, x1 = 0.9803 | 1153.8 m/s
